Experiments:
[1] = biological target: mushroom tyrosinase (EC 1.14.18.1) (Agaricus bisporus, UniProt C7FF04); experiment: Assay of tyrosinase; format: biochemical
[2] = biological target: α-Glucosidase (EC 3.2.1.20); experiment: Assay of α-glucosidase; format: biochemical; details: read-out: Inhibition (IC50) α-Glucosidase; isolated compounds; pNPG substrate, pH 6.8, 37°C; mean±SD of triplicate

Chain of mushroom tyrosinase (EC 1.14.18.1) (C7FF04 1-392 limits assumed): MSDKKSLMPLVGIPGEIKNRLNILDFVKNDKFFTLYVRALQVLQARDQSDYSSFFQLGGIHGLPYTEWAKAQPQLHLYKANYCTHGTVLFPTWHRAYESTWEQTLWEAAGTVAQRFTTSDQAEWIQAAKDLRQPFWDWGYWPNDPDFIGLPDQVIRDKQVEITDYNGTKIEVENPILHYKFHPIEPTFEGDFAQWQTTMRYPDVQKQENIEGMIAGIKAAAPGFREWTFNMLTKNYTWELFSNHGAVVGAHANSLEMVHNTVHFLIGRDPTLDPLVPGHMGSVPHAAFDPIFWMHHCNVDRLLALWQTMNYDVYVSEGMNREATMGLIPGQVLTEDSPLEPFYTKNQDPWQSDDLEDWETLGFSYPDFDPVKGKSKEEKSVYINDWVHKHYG

| SMILES | IC50 [1] [µM] | IC50 [2] [µM] |
| --- | --- | --- |
| CC(C)=CCc1c(O)cc(-c2cc3ccc(O)cc3o2)cc1O [MCC, moracin C] | 37.9 ± 0.42 | 88.8 ± 1.32 |
| Oc1cc(O)cc(-c2cc3ccc(O)cc3o2)c1 [MCM, moracin M] | 17.2 ± 0.37 | 168 ± 2.44 |
| Oc1cc(O)cc(/C=C/c2ccc(O)cc2O)c1 [ORT, oxyresveratrol] | 0.57 ± 0.04 | 273 ± 13.2 |

Next, values leading:

| IC50 [1] [µM] | IC50 [2] [µM] | SMILES |
| --- | --- | --- |
| 5.61 ± 0.2 | 6 ± 0.46 | CC(C)=CCc1c(O)ccc(C(=O)[C@H]2[C@@H](c3c(O)cc(-c4cc5ccc(O)cc5o4)cc3O)C=C(C)C[C@@H]2c2ccc(O)cc2O)c1O [CMC, chalcomoracin] |
| 10.16 ± 0.03 | 59.4 ± 2 | CC(C)=CCc1cc2cc(-c3cc(O)cc(O)c3)oc2cc1O [MCN, moracin N] |

— paper PMC6456241 (Preventive Nutrition and Food Science, 2018)
